Laboratory results taken from patent US20230060581A1, “METHOD OF TREATING PANCREATIC CANCER” (CEDARS-SINAI MEDICAL CENTER, priority 2020, published 2023).
“Also recorded” adds a separate entry of the source. Where two headings read alike, the source gives them in different places.

Columns and labels:
BRAF ΔNVTAP deletion = conditions: patients with ΔNVTAP deletion, clinical case reports; cited from earlier work
[1] = biological target: BRAF N486_P490del (delta-NVTAP) (Homo sapiens, UniProt P15056, DEL486-490); conditions: experimentally, PMID: 26996308; cited from earlier work
[2] = test system: BRAF-mutated pancreatic cancer; assay: Response and progression-free survival on BRAF/MEK/ERK-directed therapy, retrospective clinical case series; format: in vivo, human; conditions: patients with fusion abnormalities, single agent trametinib
Description: Each horizontal bar represents the time on therapy without disease progression (i.e. progression-free survival). […] Bars capped with arrows indicate lines of therapy that were continuing as of the last available progress note (censored event).
Individual patient charts were retrospectively reviewed, and clinical information was extracted.
Demographic, clinical descriptors, and outcomes data were collected under institution-specific IRB-approved protocols for each individual site. The data from each site was de-identified before being shared in a HIPAA-compliant database.
Demographic data, date of diagnosis, staging information, treatment history, and response to therapy were collected from all participating sites. Overall survival (OS) was calculated from the time of the patient's diagnosis of advanced PC (i.e. the date of recurrence following surgical resection or the date of initial diagnosis in the context of metastatic or unresectable disease) until death (survival event) or last follow-up (censored event). […] Progression-free survival (PFS) was calculated from the time of initiation of a therapy until discontinuation due to disease progression (survival event), cessation due to tolerability issues (censored event), or the last follow-up (censored event).
All survival analysis methods were implemented in an R/Bioconductor programming environment. […]

UGT1A1 = biological target: T1, UGT1A1 (Homo sapiens, UniProt P22309); conditions: cited from earlier work
T1 sequence (P22309 26-533): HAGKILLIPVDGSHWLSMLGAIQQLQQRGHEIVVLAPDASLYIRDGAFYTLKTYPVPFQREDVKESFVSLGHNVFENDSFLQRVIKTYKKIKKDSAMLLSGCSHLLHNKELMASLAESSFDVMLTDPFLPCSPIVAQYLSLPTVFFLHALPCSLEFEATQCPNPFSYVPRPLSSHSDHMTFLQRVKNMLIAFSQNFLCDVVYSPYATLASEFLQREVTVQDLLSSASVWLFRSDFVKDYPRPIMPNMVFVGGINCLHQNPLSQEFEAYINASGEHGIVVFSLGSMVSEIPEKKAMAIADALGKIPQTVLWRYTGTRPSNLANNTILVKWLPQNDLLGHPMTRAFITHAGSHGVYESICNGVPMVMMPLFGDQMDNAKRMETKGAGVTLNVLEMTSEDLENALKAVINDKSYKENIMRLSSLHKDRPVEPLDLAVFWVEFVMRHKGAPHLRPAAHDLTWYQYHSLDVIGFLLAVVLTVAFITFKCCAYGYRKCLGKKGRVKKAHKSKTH

[3] = humans; cited from earlier work
P-gp and BCRP = conditions: in vitro; cited from earlier work
[4] = in vivo; cited from earlier work
CYP1A2 and CYP2C19 = conditions: metabolic pathway contribution; cited from earlier work
[5] = cited from earlier work; for dose absorbed: human
[6] = test system: CYP3A4, CYP2C19, and CYP2D6; conditions: in vitro, cited from earlier work
[7] = test system: CYP1A2, CYP2B6, CYP2C8, CYP2C9, CYP3A4 and UGT1A1; conditions: cited from earlier work
CYP3A4 = CYP3A4 (Homo sapiens, UniProt P08684); conditions: cited from earlier work
CYP3A = conditions: concomitant administration; cited from earlier work
[8] = test system: P-gp, BCRP, OATP1B1, OATP1B3, OAT1, OAT3 and OCT2; conditions: in vitro, cited from earlier work
[9] = test system: CYP2B6, CYP2C9 and CYP3A4; conditions: human primary hepatocytes; cited from earlier work

Chain of CYP3A4 (P08684 whole entry): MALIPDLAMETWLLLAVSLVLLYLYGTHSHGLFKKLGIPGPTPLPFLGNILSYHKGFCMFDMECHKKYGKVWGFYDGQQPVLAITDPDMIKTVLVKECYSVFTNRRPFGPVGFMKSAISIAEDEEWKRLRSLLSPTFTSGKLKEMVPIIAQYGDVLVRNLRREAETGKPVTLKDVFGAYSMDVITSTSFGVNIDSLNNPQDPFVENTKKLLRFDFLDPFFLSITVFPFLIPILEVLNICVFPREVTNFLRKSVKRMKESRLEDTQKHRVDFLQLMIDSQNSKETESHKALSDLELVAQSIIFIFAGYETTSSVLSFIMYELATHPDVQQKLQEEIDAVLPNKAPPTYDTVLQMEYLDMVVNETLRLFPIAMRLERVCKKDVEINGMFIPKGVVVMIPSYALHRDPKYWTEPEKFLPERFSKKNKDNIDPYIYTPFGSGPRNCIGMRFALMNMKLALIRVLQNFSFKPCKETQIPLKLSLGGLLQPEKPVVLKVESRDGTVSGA
Chain of BRAF N486_P490del (delta-NVTAP) (P15056 with tags, fused parts or gaps DEL486-490): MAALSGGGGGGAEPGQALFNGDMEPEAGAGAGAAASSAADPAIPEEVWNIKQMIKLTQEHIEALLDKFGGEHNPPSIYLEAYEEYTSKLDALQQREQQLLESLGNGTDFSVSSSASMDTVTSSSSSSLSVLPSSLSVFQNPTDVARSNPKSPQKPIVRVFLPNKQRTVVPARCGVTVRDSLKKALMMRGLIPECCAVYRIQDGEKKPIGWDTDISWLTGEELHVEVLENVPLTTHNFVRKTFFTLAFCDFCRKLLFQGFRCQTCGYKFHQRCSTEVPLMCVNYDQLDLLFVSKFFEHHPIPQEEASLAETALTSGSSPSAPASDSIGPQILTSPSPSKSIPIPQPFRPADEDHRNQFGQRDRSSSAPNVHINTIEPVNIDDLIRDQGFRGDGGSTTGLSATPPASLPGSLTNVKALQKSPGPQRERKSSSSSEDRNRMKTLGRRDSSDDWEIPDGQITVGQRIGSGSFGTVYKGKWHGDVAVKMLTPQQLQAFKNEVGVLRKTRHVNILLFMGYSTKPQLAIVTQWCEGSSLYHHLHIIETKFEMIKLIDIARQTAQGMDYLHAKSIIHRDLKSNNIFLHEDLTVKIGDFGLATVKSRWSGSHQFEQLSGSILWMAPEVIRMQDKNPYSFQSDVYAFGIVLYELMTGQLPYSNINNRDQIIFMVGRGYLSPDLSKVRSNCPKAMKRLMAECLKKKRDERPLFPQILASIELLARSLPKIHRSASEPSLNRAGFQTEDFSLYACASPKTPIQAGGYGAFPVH

## CC(C)(C)c1nc(-c2cccc(NS(=O)(=O)c3c(F)cccc3F)c2F)c(-c2ccnc(N)n2)s1 [dabrafenib]
BRAF ΔNVTAP deletion
  clinical activity: significant activity
[1]
  Implications for BRAF Inhibitors: dabrafenib sensitivity: sensitive;

## CC(=O)Nc1cccc(-n2c(=O)n(C3CC3)c(=O)c3c(Nc4ccc(I)cc4F)n(C)c(=O)c(C)c32)c1 [trametinib]
[2]
  patients having disease control: 4/6

## Cn1cnc2c(F)c(Nc3ccc(Br)cc3F)c(C(=O)NOCCO)cc21 [Binimetinib]
UGT1A1; in vitro
  primary route of metabolism: primarily metabolized by glucuronidation through UGT1A1
UGT1A1; metabolic pathway contribution
  glucuronidation via UGT1A1: up to 61.2%
[3]
  blood-to-plasma concentration ratio: 0.718
  bound to plasma proteins: 97.2%
P-gp and BCRP
  transporter substrate: substrate of P-gp and BCRP; also recorded: substrate for P-gp and BCRP
[4]
  known potential toxicities, Very Common (≥10%): diarrhea, nausea, vomiting, fatigue, peripheral edema, increased AST, increased blood creatine phosphokinase, dermatitis acneiform, dry skin, pruritus, rash, decreased ejection fraction
CYP1A2 and CYP2C19
  N-dealkylation via CYP1A2 and CYP2C19: up to 17.8%
[5]
  dose absorbed: approximately 50%
[5]; in vivo
  accumulation: approximately 1.5 fold
  estimated renal clearance of unchanged drug: 6.3 % of total dose
  excretion of unchanged drug in feces: 31.7%
  excretion of unchanged drug in urine: 18.4%
  time to steady state concentrations: ≤ 15 days

## COC(=O)N[C@@H](C)CNc1nccc(-c2cn(C(C)C)nc2-c2cc(Cl)cc(NS(C)(=O)=O)c2F)n1 [Encorafenib]
[6]
  metabolising enzymes and pathway: metabolized by CYP3A4 and to a lesser extent by CYP2C19; also recorded: N-dealkylation is the primary metabolic pathway; CYP3A4 (primary), CYP2C19, and CYP2D6 (minor) contribute to total oxidative clearance in human liver microsomes
[6]; listed as encorafenib
  metabolising enzymes and pathway: mainly metabolized by CYP3A
[7]
  reversible enzyme inhibition: reversible inhibitor of CYP1A2, CYP2B6, CYP2C8, CYP2C9, CYP3A4 and UGT1A1
P-gp and BCRP
  transporter substrate: substrate of the transporter P-gp
CYP3A4
  time-dependent enzyme inhibition: time-dependent inhibitor of CYP3A4
CYP3A
  effect of strong or moderate CYP3A inhibitors on exposure: may increase encorafenib plasma concentration
[8]
  transporter inhibition: potent inhibitor of the renal transporters, OAT1, OAT3 and OCT2, and the hepatic transporters OATP1B1 and OATP1B3
[8]; listed as encorafenib
  transporter inhibition: can potentially inhibit the transporters P-gp, BCRP, OATP1B1, OATP1B3, OAT1, OAT3 and OCT2 at clinical concentrations
[5]
  dose absorbed: At least 86%
[5]; in vivo
  excretion, feces: 39%
  excretion, urine: 47.2%
[9]
  enzyme induction: induced CYP2B6, CYP2C9 and CYP3A4
